In patent publication US4215110A, “Method of treating hypertension” (Merck & Co., Inc., priority 1978, dated 1980):

Tested on: spontaneously hypertensive (SH) rats
Test: antihypertensive activity test in spontaneously hypertensive (SH) rats
Assay type: in vivo, rat
Conditions: administered intraperitoneally
Procedure: The present tripeptides have antihypertensive activity. This antihypertensive activity was determined using a test procedure which involved administration of representative compounds to spontaneously hypertensive (SH) rats.

## NC(=O)[C@@H]1CCCN1C(=O)[C@H](Cc1c[nH]cn1)NC(=O)[C@@H]1CCC(=O)N1 [TRH, L-pyroglutamyl-L-histidyl-L-proline-amide]
  antihypertensive activity: significant antihypertensive activity
